Assay results: ChEMBL document CHEMBL1148459, “1-alkyl-4-acylpiperazines as a new class of imidazole-free histamine H(3) receptor antagonists” (J Med Chem, 2004)

Biological target: Histamine H3 receptor (Homo sapiens, UniProt Q9Y5N1)
Assay: Antagonist potency against human histamine H3 receptor expressed in CHO cells was determined by GTPgamma-S-assay
Type: functional, cell-based

Sequence of Histamine H3 receptor (Q9Y5N1 whole entry): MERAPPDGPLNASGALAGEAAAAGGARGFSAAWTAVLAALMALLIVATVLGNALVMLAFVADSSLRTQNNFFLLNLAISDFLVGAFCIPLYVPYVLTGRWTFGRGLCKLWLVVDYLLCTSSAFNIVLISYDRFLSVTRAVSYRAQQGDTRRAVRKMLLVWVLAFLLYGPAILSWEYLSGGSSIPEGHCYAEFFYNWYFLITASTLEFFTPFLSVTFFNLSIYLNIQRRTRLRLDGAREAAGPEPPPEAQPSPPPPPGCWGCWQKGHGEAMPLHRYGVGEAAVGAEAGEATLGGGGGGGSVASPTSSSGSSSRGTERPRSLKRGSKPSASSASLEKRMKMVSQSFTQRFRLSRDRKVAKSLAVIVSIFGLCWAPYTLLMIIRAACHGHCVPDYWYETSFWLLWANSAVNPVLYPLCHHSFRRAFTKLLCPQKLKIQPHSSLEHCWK

Ki [nM]	Compound
0.74	CCC(CC)N1CCN(C(=O)CCOc2ccc(C#N)cc2)CC1
0.43	CCC(CC)N1CCN(C(=O)CCC(=O)c2ccc(OC)c(F)c2)CC1
2.7	CCC(CC)N1CCN(C(=O)CCC(=O)c2ccc(OC(F)(F)F)cc2)CC1
93	CCC(CC)N1CCN(C(=O)c2ccc(OC(F)(F)F)cc2)CC1
8.5	CCC(CC)N1CCN(C(=O)CCc2ccc(C(F)(F)F)cc2)CC1
1.4	CCC(CC)N1CCN(C(=O)CCC(=O)c2ccc(C(F)(F)F)cc2)CC1
1.5	CCC(CC)N1CCN(C(=O)CCC(=O)c2ccc(F)cc2)CC1
0.86	CCC(CC)N1CCN(C(=O)CCC(=O)c2ccc(Cl)cc2)CC1
1.2	CCC(CC)N1CCN(C(=O)CCOc2ccc(Cl)cc2)CC1
89	C#CC(C)(C)N1CCN(C(=O)CCC(=O)c2ccc(Cl)cc2)CC1
0.54	CCC(C)(C)N1CCN(C(=O)CCC(=O)c2ccc(Cl)cc2)CC1
480	CCCC(CCC)N1CCN(C(=O)CCC(=O)c2ccc(Cl)cc2)CC1
13.3	O=C(CCC(=O)N1CCN(C2CC2)CC1)c1ccc(Cl)cc1
3.6	O=C(CCC(=O)N1CCN(C2CCCCC2)CC1)c1ccc(Cl)cc1
450	O=C(CCC(=O)N1CCN(C2CCCCCCC2)CC1)c1ccc(Cl)cc1
8.3	O=C(CCC(=O)N1CCN(CC2CC2)CC1)c1ccc(Cl)cc1
4.4	CC(C)N1CCN(C(=O)CCC(=O)c2ccc(Cl)cc2)CC1
9.2	O=C(CCC(=O)N1CCN(C2CCOCC2)CC1)c1ccc(Cl)cc1
34	O=C(CCC(=O)N1CCN(C2CCCCCC2)CC1)c1ccc(Cl)cc1
1.2	O=C(CCC(=O)N1CCN(C2CCC2)CC1)c1ccc(Cl)cc1

Compound	Ki [nM]
CCC(CC)N1CCN(C(=O)Cc2ccc(N(C)C)cc2)CC1	0.96
CCC(CC)N1CCN(C(=O)Cc2ccc(C(C)=O)cc2)CC1	24
CCC(CC)N1CCN(C(=O)COc2ccc(OC(F)(F)F)cc2)CC1	110
CCC(CC)N1CCN(C(=O)Cc2ccc(-c3ccccc3)cc2)CC1	2.9
CCC(CC)N1CCN(C(=O)Cc2ccc(OC(F)(F)F)cc2)CC1	2.6
CCC(CC)N1CCN(C(=O)Cc2ccc(C(F)(F)F)cc2)CC1	2.3
